Laboratory results published in US7947695B2, “5-membered annelated heterocyclic pyrimidines as kinase inhibitors” (Janssen Pharmaceutica NV, priority 2005, dated 2011).

These compounds were tested against CDK4/cyclinD1 (Homo sapiens, UniProt P11802) (assay: In vitro filtration assay for CDK4 inhibitory activity (pRb phosphorylation, [33P]-ATP)). Settings: GST-pRb substrate, 1 μM unlabeled ATP, 25° C. 45 minutes, read-out: cdk4 filter (pIC50) (converted).
Format: biochemical
Experimental: (§1) Compounds of the present invention were tested in an in vitro filtration assay assessing CDK4 activity by means of its pRb-phosphorylation activity using [^33P]-ATP as phosphor donor. The radioactive phosphorylated pRb is then captured on filtermats and the incorporated [^33P] quantitated using a phosphorage storage screen.
The CDK4 kinase reaction is performed at 25° C. for 45 minutes in a 96-well microtiterplate. The 25 μl reaction volume contains 50 mM Hepes pH 7.5, 10 mM NaF, 10 mM MgCl2, 1 mM Na3VO4, 1 μM unlabeled ATP, 1 mM DTT, 0.5 μCi AT^33P, 0.76 μg/well GST-pRb, 50 ng CDK4/cyclinD1/well and 0.2% compound in 100% DMSO.
(§2) The reaction is stopped by adding 5 μl of a 3% phosphoric acid solution. 10 μl of the reaction mixture is then spotted onto a Filtermat P30 filter (Wallac) and washed 3 times for 5 min. in 75 mM phosphoric acid and 1 time for 5 min. in methanol prior to drying and quantification on the Typhoon (Amersham) using a phosphorage storage screen.
(§3) For each experiment, controls (containing enzyme (complex) and DMSO without compound), a blank incubation (containing DMSO but no enzyme (complex) or compound) and samples (containing enzyme (complex) and compound dissolved in DMSO) were run in parallel. All compounds tested were dissolved and eventually further diluted in DMSO. […] In each test, the blank value was subtracted from both the control and the sample values. The control sample represented maximal enzyme activity. For each sample, the amount of cpm was expressed as a percentage of the mean cpm value of the controls. When appropriate, IC50-values (concentration of the drug, needed to reduce the enzyme activity to 50% of the control) were computed using linear interpolation between the experimental points just above and below the 50% level. Herein the effects of test compounds are expressed as pIC50 (the negative log value of the IC50-value).

Sequence of CDK4/cyclinD1 (P11802 whole entry): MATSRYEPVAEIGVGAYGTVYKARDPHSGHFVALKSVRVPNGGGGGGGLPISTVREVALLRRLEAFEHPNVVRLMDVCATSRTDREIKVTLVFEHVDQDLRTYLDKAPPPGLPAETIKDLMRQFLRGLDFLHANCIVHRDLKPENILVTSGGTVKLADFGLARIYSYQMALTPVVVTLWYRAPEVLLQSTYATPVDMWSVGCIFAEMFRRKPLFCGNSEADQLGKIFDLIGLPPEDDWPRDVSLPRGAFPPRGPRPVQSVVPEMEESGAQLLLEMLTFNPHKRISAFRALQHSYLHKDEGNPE
Sequence of CDK4/cyclinD1 (P24385 whole entry partner): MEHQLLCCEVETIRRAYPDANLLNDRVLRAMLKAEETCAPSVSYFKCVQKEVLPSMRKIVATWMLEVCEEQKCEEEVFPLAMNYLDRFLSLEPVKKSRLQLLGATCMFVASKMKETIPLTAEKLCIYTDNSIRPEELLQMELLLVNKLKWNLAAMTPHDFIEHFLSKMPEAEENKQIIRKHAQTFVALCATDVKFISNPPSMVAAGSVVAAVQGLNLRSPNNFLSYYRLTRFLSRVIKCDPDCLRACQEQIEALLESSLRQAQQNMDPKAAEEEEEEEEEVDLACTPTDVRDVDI

IC50	Structure (SMILES)
0.631 µM	CN1CCC(NCc2ccc(Nc3ncc4cnn(C5CCOCC5)c4n3)cc2)CC1 [compound 73]
6.31 µM	CC(C)(C)OC(=O)N1CCN(c2ccc(Nc3ncc4cnn(C5CCCCC5)c4n3)nc2)CC1 [compound 29]
3.98 µM	CC(=O)N1CCN(c2ccc(Nc3ncc4[nH]c(=O)n(C5CCCCC5)c4n3)cc2)CC1 [compound 80]
5.01 µM	O=c1[nH]c2cnc(Nc3ccc(N4CCOCC4)nc3)nc2n1C1CCCCC1 [compound 81]
0.01 µM	OCCN1CCN(c2ccc(Nc3ncc4cnn(C5CCCCC5)c4n3)cc2)CC1 [Co. No. 15]
0.0158 µM	c1cc(Nc2ncc3cnn(C4CCCCC4)c3n2)ccc1CNC1CCNCC1 [compound 59]
0.631 µM	COCCCN1CCC(NC(=O)c2ccc(Nc3ncc4cnn(C5CCCCC5)c4n3)cc2)CC1 [compound 97]
> 10 µM	CC(C)(C)OC(=O)N(c1ccc(CN2CCOCC2)cc1)c1ncc2cnn(C3CCOCC3)c2n1 [compound 50]
0.126 µM	OCCN1CCC(NCc2ccc(Nc3ncc4cnn(C5CCCCC5)c4n3)cc2)CC1 [compound 75]
0.631 µM	CN1CCN(c2ccc(Nc3ncc4[nH]c(=O)n(C5CCCCC5)c4n3)cc2Cl)CC1 [compound 84]
0.0251 µM	CC(C)(O)CN1CCC(NCc2ccc(Nc3ncc4cnn(C5CCCCC5)c4n3)cc2)CC1 [compound 63]
> 10 µM	COCCCN1CCC(NCc2ccc(N(C(=O)OC(C)(C)C)c3ncc4cnn(C5CCCCC5)c4n3)cc2)CC1 [compound 76]
2 µM	CN(C)CCOC(=O)c1ccc(Nc2ncc3[nH]c(=O)n(C4CCCCC4)c3n2)cc1 [compound 82]
0.0398 µM	NS(=O)(=O)N1CCN(c2ccc(Nc3ncc4cnn(C5CCCCC5)c4n3)cc2)CC1 [compound 21]
0.1 µM	CN1CCN(Cc2ccc(Nc3ncc4cnn([C@H]5C[C@@H]6CC[C@H]5C6)c4n3)cc2)CC1 [compound 36]
0.398 µM	COCCCC(=O)N1CCN(Cc2ccc(Nc3ncc4cnn(C5CCCCC5)c4n3)cc2)CC1 [compound 45]
0.316 µM	COCCCN1CCN(c2ccc(Nc3ncc4c(n3)N(C3CCCCC3)C(=O)C4)cc2)CC1 [compound 90]
0.398 µM	CC(C)(O)CN1CCC(NC(=O)c2ccc(Nc3ncc4cnn(C5CCCCC5)c4n3)cc2)CC1 [compound 98]
1.26 µM	CN1CCN(Cc2ccc(Nc3ncc4cnn(C5CCOCC5)c4n3)cc2)CC1 [compound 49]

What follows are compounds tested against AURORA B (Homo sapiens, UniProt Q96GD4) (assay: In vitro filtration assay for AURORA B inhibitory activity). Settings: peptide (C(LRRWSLG)×4), 1 μM unlabeled ATP, 25° C. 40 minutes, read-out: Aurora B see C.3 (pIC50) (converted).
Sequence of AURORA B (Q96GD4 whole entry): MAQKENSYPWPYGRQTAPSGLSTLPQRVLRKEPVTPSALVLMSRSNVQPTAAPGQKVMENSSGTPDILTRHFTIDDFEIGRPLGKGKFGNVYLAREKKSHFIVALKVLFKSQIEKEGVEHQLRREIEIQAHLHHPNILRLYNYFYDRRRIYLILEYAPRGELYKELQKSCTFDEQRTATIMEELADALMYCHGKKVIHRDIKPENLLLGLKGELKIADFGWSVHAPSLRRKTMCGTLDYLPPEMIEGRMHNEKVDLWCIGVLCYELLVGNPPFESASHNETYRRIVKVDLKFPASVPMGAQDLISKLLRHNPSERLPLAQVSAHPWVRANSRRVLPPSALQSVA
Format: biochemical
Experimental: as §1, with “AURORA B” for “CDK4”, “substrate-phosphorylation” for “pRb-phosphorylation”, “substrate” for “pRb”
The Aurora-B kinase reaction is performed at 25° C. for 40 minutes in a 96-well microtiterplate. The 25 μl reaction volume contains 60 mM Hepes pH 7.5, 3 mM MgCl2, 3 mM MnCl2, 3 μM Na3VO4, 50 μg/ml PEG20000, 1 μM unlabeled ATP, 1 mM DTT, 0.2 μCi AT^33P, 0.25 μg/well peptide (C(LRRWSLG)×4),100 ng Aurora-B/well and 0.2% compound in 100% DMSO. The reaction is stopped by adding 5 μl of a 3% phosphoric acid solution. 10 μl of the reaction mixture is then spotted onto a Filtermat P30 filter (Wallac) and washed 3 times for 5 min. in 75 mM phosphoric acid and 1 time for 5 min. in methanol prior to drying and quantification on the Typhoon (Amersham) using a phosphorage storage screen.
as §3

IC50	Structure (SMILES)
> 10 µM	CN1CCC(NCc2ccc(Nc3ncc4cnn(C5CCOCC5)c4n3)cc2)CC1 [compound 73]
> 10 µM	CC(C)(C)OC(=O)N1CCN(c2ccc(Nc3ncc4cnn(C5CCCCC5)c4n3)nc2)CC1 [compound 29]
> 10 µM	CC(=O)N1CCN(c2ccc(Nc3ncc4[nH]c(=O)n(C5CCCCC5)c4n3)cc2)CC1 [compound 80]
> 10 µM	O=c1[nH]c2cnc(Nc3ccc(N4CCOCC4)nc3)nc2n1C1CCCCC1 [compound 81]
> 10 µM	OCCN1CCN(c2ccc(Nc3ncc4cnn(C5CCCCC5)c4n3)cc2)CC1 [Co. No. 15]
> 10 µM	c1cc(Nc2ncc3cnn(C4CCCCC4)c3n2)ccc1CNC1CCNCC1 [compound 59]
0.501 µM	COCCCN1CCC(NC(=O)c2ccc(Nc3ncc4cnn(C5CCCCC5)c4n3)cc2)CC1 [compound 97]
> 10 µM	CC(C)(C)OC(=O)N(c1ccc(CN2CCOCC2)cc1)c1ncc2cnn(C3CCOCC3)c2n1 [compound 50]
1.26 µM	OCCN1CCC(NCc2ccc(Nc3ncc4cnn(C5CCCCC5)c4n3)cc2)CC1 [compound 75]
> 10 µM	CN1CCN(c2ccc(Nc3ncc4[nH]c(=O)n(C5CCCCC5)c4n3)cc2Cl)CC1 [compound 84]
2.51 µM	CC(C)(O)CN1CCC(NCc2ccc(Nc3ncc4cnn(C5CCCCC5)c4n3)cc2)CC1 [compound 63]
> 10 µM	COCCCN1CCC(NCc2ccc(N(C(=O)OC(C)(C)C)c3ncc4cnn(C5CCCCC5)c4n3)cc2)CC1 [compound 76]
> 10 µM	CN(C)CCOC(=O)c1ccc(Nc2ncc3[nH]c(=O)n(C4CCCCC4)c3n2)cc1 [compound 82]
3.16 µM	NS(=O)(=O)N1CCN(c2ccc(Nc3ncc4cnn(C5CCCCC5)c4n3)cc2)CC1 [compound 21]
> 10 µM	CN1CCN(Cc2ccc(Nc3ncc4cnn([C@H]5C[C@@H]6CC[C@H]5C6)c4n3)cc2)CC1 [compound 36]

The compounds below were run against T1, AURORA A (Homo sapiens, UniProt O14965) (assay: In vitro filtration assay for AURORA A inhibitory activity). Settings: Kemptide substrate, 1 μM unlabeled ATP, 25° C. 40 minutes, read-out: Aurora A see C.2 (pIC50) (converted).
T1 sequence (O14965 1-403): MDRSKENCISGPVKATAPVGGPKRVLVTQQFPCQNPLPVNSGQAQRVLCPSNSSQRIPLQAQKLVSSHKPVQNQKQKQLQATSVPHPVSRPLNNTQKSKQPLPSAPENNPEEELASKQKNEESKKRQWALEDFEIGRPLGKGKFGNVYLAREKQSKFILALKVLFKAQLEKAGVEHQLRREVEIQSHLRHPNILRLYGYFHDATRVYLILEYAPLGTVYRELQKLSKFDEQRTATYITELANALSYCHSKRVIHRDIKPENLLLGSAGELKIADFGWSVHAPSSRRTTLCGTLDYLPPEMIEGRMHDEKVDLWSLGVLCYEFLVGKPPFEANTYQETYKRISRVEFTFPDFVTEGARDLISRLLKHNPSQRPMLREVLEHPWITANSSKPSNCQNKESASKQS
Format: biochemical
Experimental: as §1, with “AURORA A” for “CDK4”, “substrate-phosphorylation” for “pRb-phosphorylation”, “substrate” for “pRb”
The Aurora-A kinase reaction is performed at 25° C. for 40 minutes in a 96-well microtiterplate. The 25 μl reaction volume contains 12 mM MOPS pH 7, 0.4 mM EDTA, 0.002% Brij35, 1% glycerol, 0.02% beta-mercapto-ethanol, 0.2 mg/ml BSA, 1 μM unlabeled ATP, […] [^33P]-ATP, 200 μM Kemptide, 3 ng Aurora A/well and 0.2% compound in 100% DMSO.
as §2, §3

IC50	Structure (SMILES)
> 10 µM	CN1CCC(NCc2ccc(Nc3ncc4cnn(C5CCOCC5)c4n3)cc2)CC1 [compound 73]
> 10 µM	CC(C)(C)OC(=O)N1CCN(c2ccc(Nc3ncc4cnn(C5CCCCC5)c4n3)nc2)CC1 [compound 29]
2.51 µM	CC(=O)N1CCN(c2ccc(Nc3ncc4[nH]c(=O)n(C5CCCCC5)c4n3)cc2)CC1 [compound 80]
> 10 µM	O=c1[nH]c2cnc(Nc3ccc(N4CCOCC4)nc3)nc2n1C1CCCCC1 [compound 81]
0.631 µM	OCCN1CCN(c2ccc(Nc3ncc4cnn(C5CCCCC5)c4n3)cc2)CC1 [Co. No. 15]
0.794 µM	c1cc(Nc2ncc3cnn(C4CCCCC4)c3n2)ccc1CNC1CCNCC1 [compound 59]
0.398 µM	COCCCN1CCC(NC(=O)c2ccc(Nc3ncc4cnn(C5CCCCC5)c4n3)cc2)CC1 [compound 97]
> 10 µM	CC(C)(C)OC(=O)N(c1ccc(CN2CCOCC2)cc1)c1ncc2cnn(C3CCOCC3)c2n1 [compound 50]
1.58 µM	OCCN1CCC(NCc2ccc(Nc3ncc4cnn(C5CCCCC5)c4n3)cc2)CC1 [compound 75]
6.31 µM	CN1CCN(c2ccc(Nc3ncc4[nH]c(=O)n(C5CCCCC5)c4n3)cc2Cl)CC1 [compound 84]
1 µM	CC(C)(O)CN1CCC(NCc2ccc(Nc3ncc4cnn(C5CCCCC5)c4n3)cc2)CC1 [compound 63]
> 10 µM	COCCCN1CCC(NCc2ccc(N(C(=O)OC(C)(C)C)c3ncc4cnn(C5CCCCC5)c4n3)cc2)CC1 [compound 76]
> 10 µM	CN(C)CCOC(=O)c1ccc(Nc2ncc3[nH]c(=O)n(C4CCCCC4)c3n2)cc1 [compound 82]
0.2 µM	NS(=O)(=O)N1CCN(c2ccc(Nc3ncc4cnn(C5CCCCC5)c4n3)cc2)CC1 [compound 21]
0.251 µM	CN1CCN(Cc2ccc(Nc3ncc4cnn([C@H]5C[C@@H]6CC[C@H]5C6)c4n3)cc2)CC1 [compound 36]
0.2 µM	COCCCC(=O)N1CCN(Cc2ccc(Nc3ncc4cnn(C5CCCCC5)c4n3)cc2)CC1 [compound 45]
1.58 µM	COCCCN1CCN(c2ccc(Nc3ncc4c(n3)N(C3CCCCC3)C(=O)C4)cc2)CC1 [compound 90]
0.316 µM	CC(C)(O)CN1CCC(NC(=O)c2ccc(Nc3ncc4cnn(C5CCCCC5)c4n3)cc2)CC1 [compound 98]
1.26 µM	CN1CCN(Cc2ccc(Nc3ncc4cnn(C5CCOCC5)c4n3)cc2)CC1 [compound 49]
